Data: US20110136880A1, “Latrunculin-Based Macrolides and Their Uses” (priority 2009, published 2011)
Where two headings read alike, the source gives them in different places.

Legend:
[1] = tested on: PC-3; assay: MTT proliferation assay, PC-3; assay type: cell-based, human; conditions: Homo sapiens, read-out: IC50 (μM) PC-3
Excerpt: (§1) The antiproliferative and anti-invasive activities of compounds 1-14 were quantified using MTT and cell invasion assay kits, respectively. Latrunculin A (compound 1) was used as a positive control in all biological assays, because it is known to be an actin polymerization inhibitor, with cytotoxic, antiproliferative, and anti-invasive activities. The 3-[4,5-dimethylthiazol-2-yl]-2,5-diphenyl tetrazolium bromide (MTT) assay selectively detects living cells in a quantitative, colorimetric fashion, based on a living cell's ability to reduce MTT to an insoluble, purple formazan dye. The MTT assay is routinely used to assess cytotoxicity and proliferation inhibition activities. The antiproliferative activities of compounds 1-14 were measured against two human mammary gland adenocarcinoma cell lines, MCF7 and MDA-MB-231, and against human prostate cancer cells PC-3 at five different doses (0.1, 0.5, 1, 10, and 50 μM). While many of the semisynthetic latrunculins had similar activity levels, some had greater activity than compound 1. […] Although the MDA-MB-231 cells were more resistant than MCF7 against most latrunculin derivatives tested, compound 14 had potent activity against both cell lines.
(§2) MTT Proliferation Assay. The growth of MCF7, MDA-MB-231, and PC-3 cancer cell lines was measured using an MTT kit (TACS™, TREVIGEN®, Inc.). Exponentially growing cells were plated in a 96-well plate at a density of 8×10^3 cells per well, and allowed to attach for 24 h. Complete growth medium was then replaced with 100 μL of RPMI serum-free medium containing various concentrations (50, 10, 1, 0.5, 0.1 μM) of the particular test compound. Culture continued at 37° C. under 5% CO2. After 72 h of culture, the cells were treated with MTT solution (10 μL/well) at 37° C. for 4 h. The color reaction was stopped by adding solubilization/stop solution (100 μL/well). Incubation continued at 37° C. continued to completely dissolve the formazan dye product. Absorbance of the samples was determined at 570 nm with an ELISA plate reader (BioTek, VT). The number of cells per well was calculated against a standard curve that had been prepared by plating various concentrations of cells, as determined by hemocytometer, at the start of each experiment. IC50 for each compound was calculated using a nonlinear regression curve fit of log concentration versus the number of cells/well, using GraphPad Prism 5.0 (GraphPad Software, La Jolla, Calif.).

[2] = tested on: MCF7; assay: MTT proliferation assay, MCF7; assay type: cell-based, human; conditions: Homo sapiens, read-out: IC50 (μM) MCF7
Excerpt: as §1, §2

[3] = tested on: MDA-MB-231; assay: MTT proliferation assay, MDA-MB-231; assay type: cell-based, human; conditions: Homo sapiens, read-out: IC50 (μM) MDA-MB-231
Excerpt: as §1, §2

[4] = biological target: T1, pyrene-conjugated actin (Oryctolagus cuniculus, UniProt P68135); assay: Pyrene actin polymerization assay; assay type: biochemical; conditions: for inhibition at 0.1 µM: read-out: Actin polymerization inhibition (%) 100 nM; for inhibition at 1 µM: read-out: Actin polymerization inhibition (%) 1 μM; for IC50: mean ± SEM, triplicate
T1 construct: purchased Cytoskeleton, Denver, Colo
Procedure: An actin polymerization kit was used to assess the direct actin-binding activity of each analogue at two concentrations: 100 nM and 1 μM. This kit is based on the enhanced fluorescence of pyrene-conjugated actin that occurs during polymerization. When pyrene-G-actin (monomer) forms pyrene-F-actin, fluorescence is enhanced. The enhanced fluorescence is used to follow polymerization over time. Table 2 lists activities as the percentage of actin polymerization inhibition, compared to the negative vehicle control (DMSO), along with calculated IC50.
Pyrene-Actin Polymerization Assays. Actin polymerization assays were performed in accordance with the manufacturer's instructions (Cytoskeleton, Denver, Colo.). Briefly, […] final concentration of monomeric actin (1:10 pyrene labeled) was incubated on ice for 10 min with one of various concentrations of one of the latrunculin derivatives. Samples were then equilibrated 10 min in an ELISA plate reader (BioTek, VT), after which polymerization was induced by adding KCl, MgCl2, and ATP. Compounds 1-14 were tested at 0.1, 0.5, 1.0, and 10 μM. The IC50 for each compound was calculated using GraphPad Prism 5.0.
Pyrene-actin polymerization assays. Actin polymerization inhibitory activity is assessed using the Cytoskeleton Actin Polymerization kit (Cytoskeleton, Denver, Colo.). Briefly, […] (final concentration) of monomeric actin (1:10 pyrene labeled) is incubated on ice for 10 min with one of various concentrations of the test latrunculin compound. Samples are equilibrated 10 min in an ELISA plate reader (BioTek, VT), after which polymerization is induced by adding KCl, MgCl2, and ATP. Compounds are tested at 0.1, 0.5, 1.0, and 10 μM. The IC50 for each compound is calculated using GraphPad Prism 5.0.

[5] = tested on: MDA-MB-231 cells; assay: Cultrex BME cell invasion assay; assay type: cell-based, human; conditions: 1 and 0.5 μM doses
Procedure: The anti-invasive activities of compounds 1-14 were measured using a 96 well basement membrane extract (BME) cell invasion assay kit against the highly metastatic MDA-MB-231 cells. This assay employs a simplified Boyden Chamber with a polyethylene terephthalate membrane (8 μm pore size). Cell invasion was quantified using calcein-acetomethylester (calcein-AM). Cells internalize calcein-AM; intracellular esterases then cleave the acetomethylester moiety to generate free calcein. Free calcein fluoresces brightly. This fluorescence may be used to quantify the number of cells that have invaded across the BME. To correlate the anti-invasive activities of the latrunculin A derivatives with their actin-disrupting activities, compounds 1-14 were each tested at non-toxic concentrations. […] Accordingly, all compounds were tested at 0.1, 0.5, and 1.0 μM. Compound 3 killed 17% of MDA-MB-231 cells at 1.0 μM, while the same dose of compound 3 inhibited 95% of MDA-MB-231 cells' invasion. […] The anti-invasive activities of compounds 1-14 are attributed primarily to the inhibition of actin polymerization, not to cell death per se.
Cultrex® Cell Invasion Assay. Anti-invasive activities were measured using Trevigen's Cultrex® Cell Invasion Assay as described in K. Tamilarasan et al., BMC Cell Biol. 2006, 7, 17-30; and P. Borghesani et al., Development. 2002, 6, 1435-1442. About 50 μL of basement membrane extract (BME) coat was added to each well. After incubation for 4 h at 37° C. under 5% CO2, 50,000 MDA-MB-231 cells in 50 μL of serum free RPMI medium were added to each well in the top chamber, along with the test compound at one of several concentrations (0.1, 0.5, 1 μM). About 150 μL of RPMI medium was added to the lower chamber in 10% FBS and penicillin/streptomycin, using fibronectin ([…]) and N-formyl-met-leu-phe (10 nM) as chemoattractants. Cells were allowed to migrate to the lower chamber at 37° C. under 5% CO2. After 24 h, the top and bottom chambers were aspirated and washed with the washing buffer that had been supplied with the kit. About 100 μL of Cell Dissociation Solution/Calcein-AM solution was added to the bottom chamber, and the cells were incubated at 37° C. under CO2 for 1 h. Briefly, the cells internalize calcein-AM, and then the intracellular esterases cleave the AM moiety to generate free calcein. […] The number of cells that had invaded through the BME coat was calculated using a standard curve.

[6] = MDA-MB-231, MTT, 72 h, mean ± SEM
[7] = 100 nM, compared to vehicle control (DMSO)
[8] = 1 μM, compared to vehicle control (DMSO)

| Compound | IC50 ([1]; PC-3, MTT, 72 h) | IC50 ([2]; MCF7, MTT, 72 h, mean ± SEM) | IC50 [3, 6] | inhibition at 0.1 µM [4, 7] | inhibition at 1 µM [4, 8] | IC50 [4] | anti-invasive activity compared with compound 1 [5] | IC50 ([1]; PC-3, 72 h) | IC50 ([2]; MCF7, 72 h) | IC50 ([3]; MDA-MB-231, 72 h) | inhibition at 0.1 µM [4] | inhibition at 1 µM [4] |
| --- | --- | --- | --- | --- | --- | --- | --- | --- | --- | --- | --- | --- |
| CO[C@]1([C@@H]2CSC(=O)N2Cc2ccccc2)C[C@H]2C[C@@H](CC[C@H](C)/C=C\C=C\CC/C(C)=C\C(=O)O2)O1 [Compound 9, 17-O-Methyl-N-benzyllatrunculin A] | 8.3 µM | 0.78 ± 0.24 µM | 6.82 ± 1.41 µM | 33% | 67% | 333 ± 76 nM |  |  |  |  |  |  |
| CCN1C(=O)SC[C@H]1[C@@]1(O)C[C@H]2C[C@@H](CC[C@H](C)/C=C\C=C\CC/C(C)=C\C(=O)O2)O1 [Compound 12, N-Ethyllatrunculin A] | 5.72 µM | 0.95 µM | 7.19 µM | 32% | 70% | 283 ± 51 nM | equipotent to compound 1 |  |  |  |  |  |
| C/C1=C/C(=O)O[C@@H]2C[C@@H](CC[C@H](C)/C=C\C=C\CC1)O[C@@](OC(=O)c1ccccc1)([C@@H]1CSC(=O)N1)C2 [Compound 4, 17-O-Benzoyllatrunculin A] | 6.44 µM | 0.52 ± 0.14 µM | 5.05 ± 0.36 µM | 23% | 67% | 466 ± 51 nM | equipotent to compound 1 |  |  |  |  |  |
| CO[C@]1([C@@H]2CSC(=O)N2C)C[C@H]2C[C@@H](CC[C@H](C)/C=C\C=C\CC/C(C)=C\C(=O)O2)O1 [Compound 5, 17-O-Methyl-N-methyllatrunculin A] | 19.4 µM | 13.1 ± 3.69 µM | 19.9 ± 3.27 µM | 11% | 19% | > 10000 nM |  |  |  |  |  |  |
| C/C1=C/C(=O)O[C@@H]2C[C@@H](CC[C@H](C)/C=C\C=C\CC1)O[C@@](O)([C@@H]1CSC(=O)N1)C2 [Compound 1, Latrunculin A, reference compound] |  |  |  |  |  | 284 ± 72 nM |  | 3.9 µM | 0.48 ± 0.04 µM | 4.19 ± 1.49 µM | 30% | 73% |
| CCN1C(=O)SC[C@H]1[C@@]1(OC)C[C@H]2C[C@@H](CC[C@H](C)/C=C\C=C\CC/C(C)=C\C(=O)O2)O1 [Compound 6, 17-O-Methyl-N-ethyllatrunculin A] | 29.3 µM | 20.6 ± 2.77 µM | > 50 µM | 0% | 18% | > 10000 nM |  |  |  |  |  |  |
| CO[C@]1([C@@H]2CSC(=O)N2CCCO)C[C@H]2C[C@@H](CC[C@H](C)/C=C\C=C\CC/C(C)=C\C(=O)O2)O1 [Compound 8, 17-O-Methyl-N-(3′-hydroxypropyl)latrunculin A] | 34.2 µM | 19.2 ± 3.91 µM | > 50 µM | 0% | 21% | 8550 ± 574 nM |  |  |  |  |  |  |
| CO[C@]1([C@@H]2CSC(=O)N2)C[C@H]2C[C@@H](CC[C@H](C)/C=C\C=C\CC/C(C)=C\C(=O)O2)O1 [Compound 2, 17-O-Methyllatrunculin A] | 22.3 µM | 10.2 ± 1.72 µM | 23.4 ± 0.85 µM | 6% | 21% | 9230 ± 825 nM |  |  |  |  |  |  |
| CO[C@]1([C@@H]2CSC(=O)N2C2CCCC2)C[C@H]2C[C@@H](CC[C@H](C)/C=C\C=C\CC/C(C)=C\C(=O)O2)O1 [Compound 7, 17-O-Methyl-N-cyclopentanelatrunculin A] | 7.24 µM | 5.3 ± 1.32 µM | 5.07 ± 0.72 µM | 20% | 49% | 1050 ± 271 nM |  |  |  |  |  |  |
| CO[C@]1([C@@H]2CSC(=O)N2C(=O)c2ccccc2)C[C@H]2C[C@@H](CC[C@H](C)/C=C\C=C\CC/C(C)=C\C(=O)O2)O1 [Compound 10, 17-O-Methyl-N-benzoyllatrunculin A] | 4.7 µM | 0.55 ± 0.091 µM | 4.48 ± 1.79 µM | 17% | 53% | 834 ± 109 nM |  |  |  |  |  |  |
